The values that follow come from patent publication US20230081426A1, “COMPOUNDS AND METHODS FOR KRAS MODULATION AND INDICATIONS THEREFOR” (Plexxikon Inc., priority 2020, published 2023).

The structures appear in SMILES notation.

Test [1] concerns the target T1, G12D-mutant human KRAS (amino acid residues 1-188) (Homo sapiens, UniProt P01116, G12D).
T1 construct: G12D or G12C-mutant human KRAS (amino acid residues 1-188) with FLAG tag; made in house; host or cells: E. coli
Kind of test: KRAS Binding Disruption Assay (AlphaScreen; biotinylated KRpep-2d analogue or RAF1-RBD), G12D. To be noted: KRAS G12D; geometric mean; read-out: KRAS GMean IC50 (uM) MUTATION: G12D. A digest of the protocol: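 Displacement format with mutant KRAS, biotinylated KRpep-2d analogue or RAF1-RBD (5-20 nM each) at pH 7.5 with 5 mM MgCl2.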
(In general: Bead proximity is the source of the signal in Alpha formats.)

For test [2], the target named is T2, G12V-mutant human KRAS (amino acid residues 1-188) (Homo sapiens, UniProt P01116, G12V).
T2 construct: G12V-mutant human KRAS (amino acid residues 1-188) with FLAG tag was purified from E. coli; made in house; host or cells: E. coli
Kind of test: KRAS Binding Competition Assay (AlphaScreen; biotinylated KRpep-2d analogue), G12V. Particulars: geometric mean, read-out: KRAS GMean IC50 (uM) MUTATION: G12V. As for the experimental part:
Compound binding disrupts the interaction of KRpep-2d with KRAS, leading to a decrease in Alpha signal.
All assay components were prepared in 20 mM HEPES (pH 7.5), 100 mM NaCl, 5 mM MgCl2, 0.01% Tween-20, and 0.01% BSA. Biotinylated analogues of KRpep-2d were custom synthesized. The binding competition assays were performed using 10 nM of mutant KRAS and 10 nM of biotinylated KRpep-2d analogue. 19 μL of KRAS protein and 4 μL of biotinylated KRpep-2d were added to the wells of a 384-well plate containing 1 μL of various concentrations of test compound or DMSO vehicle. 16 wells containing KRAS, biotinylated KRpep-2d, and 5% DMSO served as high controls. 16 wells containing KRAS only and 5% DMSO served as low controls. Binding reactions were incubated for 1 hour at 25° C., then Anti-Flag Acceptor and Streptavidin Donor Alpha beads were added at a final concentration of 10 μg/mL for an additional hour at room temperature. Alpha signal was read out on a Perkin Elmer Envision HTS instrument. The percentage inhibition at individual compound concentrations relative to high and low controls was calculated. The data were analyzed by using nonlinear regression to generate IC50 values.

As a reminder, the IC50 is the concentration needed to halve the response being measured. For the molecule `CN1CCC[C@H]1COc1nc(N2C[C@H]3CC[C@@H](C2)N3)c2cc(Cl)c(-c3cc(O)cc4ccccc34)cc2n1` [P-0043, 4-(4-((1R,5S)-3,8-diazabicyclo[3.2.1]octan-3-yl)-6-chloro-2-(((S)-1-methylpyrrolidin-2-yl)methoxy)quinazolin-7-yl)naphthalen-2-ol], the results for the IC50 in test [1] and in test [2] were 0.0001 to 10 µM and 10 to 100 µM, respectively.

For the molecule `CN1CCC[C@H]1COc1nc(N2CCC3CCC(C2)N3)c2cc(Cl)c(-c3cc(O)cc4ccccc34)c(F)c2n1` (stereo partly drawn) [P-0046, 4-(4-(3,9-diazabicyclo[4.2.1]nonan-3-yl)-6-chloro-8-fluoro-2-(((S)-1-methylpyrrolidin-2-yl)methoxy)quinazolin-7-yl)naphthalen-2-ol], the half-maximal inhibitory concentration (IC50) in test [1] is 0.0001 to 10 µM; in test [2], 10 to 100 µM.

Consider `Oc1cc(-c2c(Cl)cc3c(N4C[C@H]5CC[C@@H](C4)N5)nc(OCC45CCCN4CC(F)(F)C5)nc3c2F)c2ccccc2c1` (stereo partly drawn) [P-0047, 4-(4-((1R,5S)-3,8-diazabicyclo[3.2.1]octan-3-yl)-6-chloro-2-((2,2-difluorotetrahydro-1H-pyrrolizin-7a(5H)-yl)methoxy)-8-fluoroquinazolin-7-yl)naphthalen-2-ol], for which the IC50 in test [1] and in test [2] was 0.0001 to 10 µM in each case.

In the case of `CN1CCC[C@H]1COc1nc(N2CC3CCC2CN3)c2ccc(-c3cc(O)cc4ccccc34)cc2n1` (stereo partly drawn) [P-0050, 4-(4-(2,5-diazabicyclo[2.2.2]octan-2-yl)-2-(((S)-1-methylpyrrolidin-2-yl)methoxy)quinazolin-7-yl)naphthalen-2-ol], the values for the IC50 in test [1] and in test [2] were 0.0001 to 10 µM and 10 to 100 µM, respectively.

Consider `Oc1cc(-c2ccc3c(C4=C[C@@H]5CC[C@H](C4)N5)nc(OCC45CCCN4CCC5)nc3c2)c2ccccc2c1` [P-0054, 4-(4-((1S,5R)-8-azabicyclo[3.2.1]oct-2-en-3-yl)-2-((tetrahydro-1H-pyrrolizin-7a(5H)-yl)methoxy)quinazolin-7-yl)naphthalen-2-ol], for which the IC50 was in the range of 0.0001 to 10 µM in test [1] and 10 to 100 µM in test [2].

As for `CN1C[C@H](F)C[C@H]1COc1nc(N2C[C@H]3CC[C@@H](C2)N3)c2ccc(-c3cc(O)cc4ccccc34)cc2n1` [P-0072, 4-(4-((1R,5S)-3,8-diazabicyclo[3.2.1]octan-3-yl)-2-(((2S,4R)-4-fluoro-1-methylpyrrolidin-2-yl)methoxy)quinazolin-7-yl)naphthalen-2-ol], the concentration for half-maximal inhibition (IC50) in test [1] and in test [2] was 0.0001 to 10 µM throughout.

For the molecule `Cc1cccc2cc(O)cc(-c3ccc4c(N5C[C@H]6CC[C@@H](C5)N6)nc(OC[C@@H]5CCCN5C)nc4c3F)c12` [P-0073, 4-(4-((1R,5S)-3,8-diazabicyclo[3.2.1]octan-3-yl)-8-fluoro-2-(((S)-1-methylpyrrolidin-2-yl)methoxy)quinazolin-7-yl)-5-methylnaphthalen-2-ol], the IC50 in test [1] and in test [2] was 0.0001 to 10 µM each time.

Take `O=C(NC1CCCC1)N1[C@@H]2CC[C@H]1CN(c1nc(OCC34CCCN3CCC4)nc3cc(-c4cc(O)cc5ccccc45)ccc13)C2` [P-0075, (1R,5S)-N-cyclopentyl-3-(7-(3-hydroxynaphthalen-1-yl)-2-((tetrahydro-1H-pyrrolizin-7a(5H)-yl)methoxy)quinazolin-4-yl)-3,8-diazabicyclo[3.2.1]octane-8-carboxamide]: the IC50 in test [1] and in test [2] was 0.0001 to 10 µM each time.

Turning to `Oc1cc(-c2ccc3c(N4C[C@H]5CC[C@@H](C4)N5)nc(OC[C@@H]4CCCN4CCF)nc3c2)c2ccccc2c1` [P-0077, 4-(4-((1R,5S)-3,8-diazabicyclo[3.2.1]octan-3-yl)-2-(((S)-1-(2-fluoroethyl)pyrrolidin-2-yl)methoxy)quinazolin-7-yl)naphthalen-2-ol], the IC50 in test [1] lay in the range of 0.0001 to 10 µM; in test [2] it was 10 to 100 µM.

Take `CN1CCC[C@@H](COc2nc(N3C[C@H]4CC[C@@H](C3)N4)c3ccc(-c4cc(O)cc5ccccc45)cc3n2)C1` [P-0078, 4-(4-((1R,5S)-3,8-diazabicyclo[3.2.1]octan-3-yl)-2-(((R)-1-methylpiperidin-3-yl)methoxy)quinazolin-7-yl)naphthalen-2-ol]: the IC50 in test [1] was in the range of 0.0001 to 10 µM; in test [2] it was 10 to 100 µM.

For the molecule `CN1CCCC[C@H]1COc1nc(N2C[C@H]3CC[C@@H](C2)N3)c2ccc(-c3cc(O)cc4ccccc34)cc2n1` [P-0079, 4-(4-((1R,5S)-3,8-diazabicyclo[3.2.1]octan-3-yl)-2-(((S)-1-methylpiperidin-2-yl)methoxy)quinazolin-7-yl)naphthalen-2-ol], the figures for the IC50 in test [1] and in test [2] were 0.0001 to 10 µM and 10 to 100 µM, respectively.

Turning to `CCN1CCC[C@H]1COc1nc(N2C[C@H]3CC[C@@H](C2)N3)c2ccc(-c3cc(O)cc4ccccc34)cc2n1` [P-0080, 4-(4-((1R,5S)-3,8-diazabicyclo[3.2.1]octan-3-yl)-2-(((S)-1-ethylpyrrolidin-2-yl)methoxy)quinazolin-7-yl)naphthalen-2-ol], the IC50 in test [1] lay in the range of 0.0001 to 10 µM; in test [2] it was 10 to 100 µM.

For the molecule `Cc1cccc2cc(O)cc(-c3c(F)cc4c(N5C[C@H]6CC[C@@H](C5)N6)nc(OC[C@@H]5CCCN5C)nc4c3F)c12` [P-0087, 4-(4-((1R,5S)-3,8-diazabicyclo[3.2.1]octan-3-yl)-6,8-difluoro-2-(((S)-1-methylpyrrolidin-2-yl)methoxy)quinazolin-7-yl)-5-methylnaphthalen-2-ol], the IC50 in test [1] and in test [2] was 0.0001 to 10 µM throughout.

`CC(=O)OCC(=O)N1[C@@H]2CC[C@H]1CN(c1nc(OCC34CCCN3CCC4)nc3cc(-c4cc(O)cc5ccccc45)ccc13)C2` [P-0089, 2-((1R,5S)-3-(7-(3-hydroxynaphthalen-1-yl)-2-((tetrahydro-1H-pyrrolizin-7a(5H)-yl)methoxy)quinazolin-4-yl)-3,8-diazabicyclo[3.2.1]octan-8-yl)-2-oxoethyl acetate]: the IC50 in test [1] and in test [2] was 0.0001 to 10 µM each time.

As for `CCOC(=O)CNC(=O)N1[C@@H]2CC[C@H]1CN(c1nc(OCC34CCCN3CCC4)nc3cc(-c4cc(O)cc5ccccc45)ccc13)C2` [P-0090, ethyl ((1R,5S)-3-(7-(3-hydroxynaphthalen-1-yl)-2-((tetrahydro-1H-pyrrolizin-7a(5H)-yl)methoxy)quinazolin-4-yl)-3,8-diazabicyclo[3.2.1]octane-8-carbonyl)glycinate], the IC50 in test [1] and in test [2] was 0.0001 to 10 µM in each case.

As for `CC(=O)NCC(=O)N1[C@@H]2CC[C@H]1CN(c1nc(OCC34CCCN3CCC4)nc3cc(-c4cc(O)cc5ccccc45)ccc13)C2` [P-0091, N-(2-((1R,5S)-3-(7-(3-hydroxynaphthalen-1-yl)-2-((tetrahydro-1H-pyrrolizin-7a(5H)-yl)methoxy)quinazolin-4-yl)-3,8-diazabicyclo[3.2.1]octan-8-yl)-2-oxoethyl)acetamide], the IC50 in test [1] and in test [2] was 0.0001 to 10 µM each time.

On to `O=C(CN1CCCS1(=O)=O)N1[C@@H]2CC[C@H]1CN(c1nc(OCC34CCCN3CCC4)nc3cc(-c4cc(O)cc5ccccc45)ccc13)C2` [P-0092, 2-(1,1-dioxidoisothiazolidin-2-yl)-1-((1R,5S)-3-(7-(3-hydroxynaphthalen-1-yl)-2-((tetrahydro-1H-pyrrolizin-7a(5H)-yl)methoxy)quinazolin-4-yl)-3,8-diazabicyclo[3.2.1]octan-8-yl)ethan-1-one], for which the IC50 in test [1] and in test [2] was 0.0001 to 10 µM in each case.

In the case of `NS(=O)(=O)CCC(=O)N1[C@@H]2CC[C@H]1CN(c1nc(OCC34CCCN3CCC4)nc3cc(-c4cc(O)cc5ccccc45)ccc13)C2` [P-0093, 3-((1R,5S)-3-(7-(3-hydroxynaphthalen-1-yl)-2-((tetrahydro-1H-pyrrolizin-7a(5H)-yl)methoxy)quinazolin-4-yl)-3,8-diazabicyclo[3.2.1]octan-8-yl)-3-oxopropane-1-sulfonamide], the IC50 in test [1] and in test [2] was 0.0001 to 10 µM each time.

Regarding `O=C(O)CNC(=O)N1[C@@H]2CC[C@H]1CN(c1nc(OCC34CCCN3CCC4)nc3cc(-c4cc(O)cc5ccccc45)ccc13)C2` [P-0094, ((1R,5S)-3-(7-(3-hydroxynaphthalen-1-yl)-2-((tetrahydro-1H-pyrrolizin-7a(5H)-yl)methoxy)quinazolin-4-yl)-3,8-diazabicyclo[3.2.1]octane-8-carbonyl)glycine], the IC50 in test [1] and in test [2] was 0.0001 to 10 µM each time.

As to `Oc1cc(-c2ccc3c(N4C[C@H]5CC[C@@H](C4)N5)nc(OCC45CCCCN4CCCC5)nc3c2)c2ccccc2c1` [P-0095, 4-(4-((1R,5S)-3,8-diazabicyclo[3.2.1]octan-3-yl)-2-((octahydro-9aH-quinolizin-9a-yl)methoxy)quinazolin-7-yl)naphthalen-2-ol], the IC50 in test [1] lay within 0.0001 to 10 µM; in test [2], 10 to 100 µM.
